Values quoted from earlier work in paper PMC2751796 (Pharmacology & therapeutics, 2009).
Where two headings read alike, the source gives them in different places.

Experiments:
[1] = test system: P-gp; details: cited from earlier work; for Fold change in brain uptake ratio in inhibitor-treated vs. control mice / Fold change in brain uptake ratio in inhibitor-treated vs. control mice (value corrected for drug in vasculature): Conc.
[2] = test system: P-gp; details: read-out: Reported EC50; ref Ekins et al., 2002; Rautio et al., 2006; cited from earlier work
[3] = cited from earlier work
[4] = molecular target: P-gp (Rattus norvegicus, UniProt Q6PSM0); details: cited from earlier work; for Increase in brain-to-plasma AUC ratio with elacridar: studies in rats (so in the source), ref Barraud de Lagerie et al., 2004
[5] = test system: P-gp and BCRP; details: ref Oostendorp et al., 2009; Chen et al., 2008; cited from earlier work
[6] = cited from earlier work; remark: listed apart in the source
[7] = cited from earlier work; for Increase of plasma AUC with ritonavir (200 mg twice daily, 5.5 days): ref Mukwaya et al., 2005
[8] = test system: P-gp; details: cited from earlier work
[9] = test system: P-gp; details: ref Hugnet et al., 1996; Mealey et al., 2001, 2003, 2008; Sartor et al., 2004; cited from earlier work
[10] = mice, cited from earlier work
[11] = test system: P-gp; details: parameter not given; ref Saito et al., 2001; cited from earlier work
[12] = test system: P-gp; details: four adult rhesus monkeys; ref Warren et al., 2000; cited from earlier work
[13] = test system: Bcrp; details: mouse, in vivo; cited from earlier work
[14] = Valspodar (12.5 mg/kg, IV), ref Choo et al., 2000
[15] = Verapamil (12.5 mg/kg, IV), ref Choo et al., 2000
[16] = Zosuquidar (50 mg/kg, IV), ref Choo et al., 2000
[17] = 16 mg, eight healthy subjects, ref Sadeque et al., 2000

Chain of P-gp (Rattus norvegicus, UniProt Q6PSM0) (Q6PSM0 1-1272): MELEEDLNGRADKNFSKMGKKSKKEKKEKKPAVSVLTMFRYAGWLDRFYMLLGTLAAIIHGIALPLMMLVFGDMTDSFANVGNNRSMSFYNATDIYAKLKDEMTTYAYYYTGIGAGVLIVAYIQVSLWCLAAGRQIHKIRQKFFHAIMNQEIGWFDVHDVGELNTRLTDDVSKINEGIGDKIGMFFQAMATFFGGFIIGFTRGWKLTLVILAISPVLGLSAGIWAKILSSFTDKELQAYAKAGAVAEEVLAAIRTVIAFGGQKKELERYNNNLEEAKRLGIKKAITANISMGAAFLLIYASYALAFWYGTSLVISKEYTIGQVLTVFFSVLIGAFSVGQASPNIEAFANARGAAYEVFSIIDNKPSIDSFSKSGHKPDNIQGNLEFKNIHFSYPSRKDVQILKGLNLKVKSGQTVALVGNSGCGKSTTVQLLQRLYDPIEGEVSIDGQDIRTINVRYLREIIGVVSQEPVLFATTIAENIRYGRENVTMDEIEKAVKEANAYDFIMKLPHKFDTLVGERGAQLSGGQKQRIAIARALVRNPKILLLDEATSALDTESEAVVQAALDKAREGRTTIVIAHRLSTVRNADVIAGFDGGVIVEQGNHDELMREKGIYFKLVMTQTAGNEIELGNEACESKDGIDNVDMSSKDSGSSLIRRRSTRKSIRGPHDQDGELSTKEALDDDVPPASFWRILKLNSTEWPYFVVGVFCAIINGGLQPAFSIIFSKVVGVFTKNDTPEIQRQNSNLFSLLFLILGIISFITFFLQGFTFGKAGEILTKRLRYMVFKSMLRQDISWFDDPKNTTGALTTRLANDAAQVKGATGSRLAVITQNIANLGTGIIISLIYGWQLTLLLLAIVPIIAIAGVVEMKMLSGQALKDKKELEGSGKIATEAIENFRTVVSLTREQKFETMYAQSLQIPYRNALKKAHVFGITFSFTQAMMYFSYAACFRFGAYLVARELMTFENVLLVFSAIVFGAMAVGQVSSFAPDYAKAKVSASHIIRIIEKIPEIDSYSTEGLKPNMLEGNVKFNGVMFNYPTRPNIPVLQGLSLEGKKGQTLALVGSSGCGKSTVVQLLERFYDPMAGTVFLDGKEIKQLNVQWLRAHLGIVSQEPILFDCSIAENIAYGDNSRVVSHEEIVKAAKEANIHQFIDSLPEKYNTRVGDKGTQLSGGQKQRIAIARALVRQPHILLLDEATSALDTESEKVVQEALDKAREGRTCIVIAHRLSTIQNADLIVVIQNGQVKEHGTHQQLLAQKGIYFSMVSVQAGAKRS

Cc1c(O)cccc1C(=O)N[C@@H](CSc1ccccc1)[C@H](O)CN1C[C@H]2CCCC[C@H]2C[C@H]1C(=O)NC(C)(C)C [Nelfinavir]
Fold change in brain uptake ratio in inhibitor-treated vs. control mice ([1]; Elacridar (10 mg/kg, IV), ref Salama et al., 2005, Giri et al., 2008): 8.7 fold | Fold change in brain uptake ratio in inhibitor-treated vs. control mice (value corrected for drug in vasculature) ([1]; Elacridar (10 mg/kg, IV), ref Salama et al., 2005): 8.9 fold | Fold change in brain uptake ratio in inhibitor-treated vs. control mice [1, 14]: 10.3 fold | Fold change in brain uptake ratio in inhibitor-treated vs. control mice (value corrected for drug in vasculature) [1, 14]: 13.3 fold | Fold change in brain uptake ratio in inhibitor-treated vs. control mice [1, 15]: 1.0 (1.0), Conc. fold | Fold change in brain uptake ratio in inhibitor-treated vs. control mice (value corrected for drug in vasculature) [1, 15]: 1.0 (1.0), Conc. fold | Fold change in brain uptake ratio in inhibitor-treated vs. control mice [1, 16]: 18.1 fold | Fold change in brain uptake ratio in inhibitor-treated vs. control mice (value corrected for drug in vasculature) [1, 16]: 25.1 fold | Fold change in brain uptake ratio in inhibitor-treated vs. control mice ([1]; Zosuquidar (50 mg/kg, IV), ref Choo et al., 2000, listed as nelfinavir): up to 18 fold | EC50 [2]: 1.4 to 44 µM | CNS distribution in untreated subjects (brain / plasma conc. ratio) ([3]; ref Kaddoumi et al., 2007, Eyal, et al., 2009): 0.04 | CNS distribution in untreated subjects (lumbar CSF / plasma, conc. ratio) ([3]; ref Kaddoumi et al., 2007): 0.006 | Increase in brain uptake with zosuquidar in rats ([4]; dose-dependent, ref Anderson et al., 2006): ≤ 29 fold

Cc1nc(Nc2ncc(C(=O)Nc3c(C)cccc3Cl)s2)cc(N2CCN(CCO)CC2)n1 [dasatinib]
Increase of brain-to-plasma concentration ratio in triple KO mice [5]: 10 fold

O[C@@H](COc1cccc2ncccc12)CN1CCN([C@@H]2c3ccccc3[C@@H]3[C@H](c4ccccc42)C3(F)F)CC1 [Zosuquidar]
Precipitant drug concentration (CSF) ([6]; in vivo): 8.5 ng/mL

CC[C@H]1OC(=O)[C@H](C)[C@@H](O[C@H]2C[C@@](C)(OC)[C@@H](O)[C@H](C)O2)[C@H](C)[C@@H](O[C@@H]2O[C@H](C)C[C@H](N(C)C)[C@H]2O)[C@](C)(O)C[C@@H](C)C(=O)[C@H](C)[C@@H](O)[C@]1(C)O [Erythromycin]
EC50 [2]: 38 µM

CN(C)C(=O)C(CCN1CCC(O)(c2ccc(Cl)cc2)CC1)(c1ccccc1)c1ccccc1 [Loperamide]
Increase of plasma AUC with 600 mg ritonavir ([7]; 12 healthy volunteers, ref Tayrouz et al., 2001): 2.7 fold | Increase of plasma AUC with ritonavir (200 mg twice daily, 5.5 days) [7]: 2.2 fold | Opioid-induced respiratory depression, given alone [8, 17]: did not produce respiratory depression | Opioid-induced respiratory depression, with quinidine sulfate (600 mg) [8, 17]: respiratory depression occurred | Effect of tariquidar (150 mg, iv) on plasma concentrations and CNS effects ([8]; loperamide 32 mg orally, nine healthy volunteers, ref Kurnik et al., 2008): did not significantly affect | Effect of exposure in Collie and other dog breeds that naturally lack P-gp [9]: neurological symptoms

O[C@@H](c1cc(C(F)(F)F)nc2c(C(F)(F)F)cccc12)[C@H]1CCCCN1 [(+) mefloquine, mefloquine]
Increase in brain-to-plasma AUC ratio with elacridar [4]: 2.5 times

C=C[C@H]1C[N@@]2CC[C@H]1C[C@@H]2[C@@H](O)c1ccnc2ccc(OC)cc12 [Quinidine]
Inhibitor concentration (plasma) ([10]; 100 mg/kg, IP, ref Fromm et al., 1999): ~2 µM | Total concentration achievable in humans treated for tumors ([7]; ref Raderer & Scheithauer, 1993): 4.5 to 5.6 µM | EC50 [2]: 2 to 55 µM

CC[C@]1(O)C[C@H]2CN(CCc3c([nH]c4ccccc34)[C@@](C(=O)OC)(c3cc4c(cc3OC)N(C=O)[C@H]3[C@@](O)(C(=O)OC)[C@H](OC(C)=O)[C@]5(CC)C=CCN6CC[C@]43[C@@H]65)C2)C1 [Vincristine]
Effect of exposure in Collie and other dog breeds that naturally lack P-gp [9]: neurological symptoms

CC[C@]1(O)C[C@@H]2CN(CCc3c([nH]c4ccccc34)[C@@](C(=O)OC)(c3cc4c(cc3OC)N(C)[C@H]3[C@@](O)(C(=O)OC)[C@H](OC(C)=O)[C@]5(CC)C=CCN6CC[C@]43[C@@H]65)C2)C1 [Vinblastine]
Fold change in brain uptake ratio in P-gp KO vs. control mice [11]: 3.3 fold | Fold change in brain uptake ratio in P-gp KO vs. control mice (value corrected for drug in vasculature) [11]: 3.4 fold | Increase in brain uptake by valspodar and elacridar ([1]; ref Cisternino et al., 2001): 3 fold | Effect of exposure in Collie and other dog breeds that naturally lack P-gp [9]: neurological symptoms

O=c1[nH]cnc2c1ncn2[C@H]1CC[C@@H](CO)O1 [Didanosine]
Precipitant drug concentration (plasma) ([6]; ref Tuntland et al., 1994): 0.9 to 11.3 µg/mL

[^18F]-Paclitaxel
CNS distribution in untreated subjects (brain / metabolite-corrected plasma AUC ratio) ([3]; ref Kurdziel et al., 2003): 0.05 (brain / metabolite-corrected plasma AUC ratio)

CCCN(CCC)S(=O)(=O)c1ccc(C(=O)O)cc1 [probenecid]
Probenecid CSF concentrations at 2500 mg/m^2 ([7]; ref Bode et al., 1980): 2.4 to 3.4 µg/mL

CC(C)(C)c1ccc(C(O)CCCN2CCC(C(O)(c3ccccc3)c3ccccc3)CC2)cc1 (centres unmarked) [terfenadine]
Increase in brain uptake with cyclosporine in rats ([4]; ref Obradovic et al., 2007): several-fold

Cc1cn([C@H]2C[C@H](N=[N+]=[N-])[C@@H](CO)O2)c(=O)[nH]c1=O [Zidovudine]
Precipitant drug concentration (CSF) ([6]; ref Tuntland et al., 1994): 100 to 2200 ng/mL | Precipitant drug concentration (plasma) ([6]; ref Tuntland et al., 1994): 0.5 to 11.2 µg/mL

COc1cccc2c1C(=O)c1c(O)c3c(c(O)c1C2=O)C[C@@](O)(C(=O)CO)C[C@@H]3O[C@H]1C[C@H](N)[C@H](O)[C@H](C)O1 [Doxorubicin]
Effect of exposure in Collie and other dog breeds that naturally lack P-gp [9]: neurological symptoms | CNS distribution in untreated subjects (ventricular CSF / plasma conc. ratio) ([3]; ref Warren et al., 2000): < 0.05 (ventricular CSF / plasma conc. ratio) | CSF concentrations alone or with intravenous cyclosporine [12]: below the limit of detection

C/C=C/C[C@@H](C)C(=O)[C@H]1C(=O)N[C@@H](C(C)C)C(=O)N(C)CC(=O)N(C)[C@@H](CC(C)C)C(=O)N[C@@H](C(C)C)C(=O)N(C)[C@@H](CC(C)C)C(=O)N[C@@H](C)C(=O)N[C@H](C)C(=O)N(C)[C@@H](CC(C)C)C(=O)N(C)[C@@H](CC(C)C)C(=O)N(C)[C@@H](C(C)C)C(=O)N1C [Valspodar]
Inhibitor concentration (brain) ([10]; 50 mg/kg, PO, ref Mayer et al., 1997): 250 ng/g

CC(=O)O[C@@]12CO[C@@H]1C[C@H](O)[C@@]1(C)C(=O)[C@H](O)C3=C(C)[C@@H](OC(=O)[C@H](O)[C@@H](NC(=O)OC(C)(C)C)c4ccccc4)C[C@@](O)([C@@H](OC(=O)c4ccccc4)[C@H]21)C3(C)C [Docetaxel]
Increase in brain uptake by single oral doses of valspodar and elacridar ([1]; ref Kemper et al., 2004c): up to 2.6 fold

CNC(=O)C(CCN1CCC(O)(c2ccc(Cl)cc2)CC1)(c1ccccc1)c1ccccc1 [N-desmethyl-loperamide]
Increase of plasma AUC with ritonavir (200 mg twice daily, 5.5 days) [7]: 1.4 fold

Cc1ccc(NC(=O)c2ccc(CN3CCN(C)CC3)cc2)cc1Nc1nccc(-c2cccnc2)n1 [Imatinib]
Enhancement of brain uptake by valspodar or zosuquidar ([1]; ref Bihorel et al., 2007): up to 3 fold | Increase in brain distribution with elacridar in WT mice ([1]; ref Breedveld et al., 2005, Oostendorp et al., 2009): up to 5 fold

CC(C)(C)NC(=O)[C@@H]1CN(Cc2cccnc2)CCN1C[C@@H](O)C[C@@H](Cc1ccccc1)C(=O)N[C@H]1c2ccccc2C[C@H]1O [Indinavir]
EC50 [2]: > 50 µM

CC(=O)O[C@H]1C(=O)[C@@]2(C)[C@H]([C@H](OC(=O)c3ccccc3)[C@]3(O)C[C@H](OC(=O)[C@H](O)[C@@H](NC(=O)c4ccccc4)c4ccccc4)C(C)=C1C3(C)C)[C@]1(OC(C)=O)CO[C@@H]1C[C@@H]2O [Paclitaxel]
Increase in brain uptake with elacridar ([1]; elacridar plasma concentrations <900 ng/ml, ref Kemper et al., 2003): 5 fold

CCC(C)n1ncn(-c2ccc(N3CCN(c4ccc(OCC5COC(Cn6cncn6)(c6ccc(Cl)cc6Cl)O5)cc4)CC3)cc2)c1=O (centres unmarked) [Itraconazole]
EC50 [2]: 0.5 µM

CC[C@@]1(O)C(=O)OCc2c1cc1n(c2=O)Cc2cc3c(CN(C)C)c(O)ccc3nc2-1 [topotecan lactone]
Decrease of ventricular CSF-to-plasma AUC ratio with gefitinib [13]: 17%

CC(C)(C)NC(=O)[C@@H]1C[C@@H]2CCCC[C@@H]2CN1C[C@@H](O)[C@H](Cc1ccccc1)NC(=O)[C@H](CC(N)=O)NC(=O)c1ccc2ccccc2n1 [Saquinavir]
Fold change in brain uptake ratio in inhibitor-treated vs. control mice [1, 16]: ∼ 3.0, Conc. fold | EC50 [2]: 6.5 µM

O[C@H](c1cc(C(F)(F)F)nc2c(C(F)(F)F)cccc12)[C@@H]1CCCCN1 [(-) mefloquine, mefloquine]
Increase in brain-to-plasma AUC ratio with elacridar [4]: 1.5 times
